Results taken from patent publication US11008325B2, “Inhibitors of cancer invasion, attachment, and/or metastasis” (VIRGINIA COMMONWEALTH UNIVERSITY, priority 2016, dated 2021).
Read-outs that look alike come from different tables or passages of the source.

Experiments:
[1] = test system: HBMEC barrier over GBM6 cells; experiment: HBMEC transwell blood brain barrier surrogate assay; format: in vitro ADME, human; settings: 50 μM PDZ1i, 24 h, read out as GBM6 invasion
Experimental: FIG. 12. PDZ1i crosses the blood brain barrier (BBB). Primary human malignant glioma cells (GBM6) were seeded on the bottom well of a transwell chamber. In the top chamber, a monolayer of HBMEC cells separated GBM6 cells from media containing DMSO, 50 μM PDZ1i or Temozolomide (500 μM). After 24 h incubation in these conditions, invasion of GBM6 cells were analyzed by seeding in a trans-well Matrigel invasion assay and stained after 24 h. NB: PDZ1i treatment and invasion assay without HBMEC barrier. Error bars=f s.d.
A critical property of a potential therapeutic agent is its stability in the circulation and bioavailability in vivo. […] Additionally, when treating glioma pharmaceutically, the ability for a compound to cross the blood brain barrier (BBB) is paramount. […] Prior to in vivo efficacy studies, we evaluated the ability of the compound to cross the blood brain barrier using a target-based surrogate cellular assay. This method is preferred to direct in vivo measurements of compound concentration in the brain because of low sensitivity of the detection methods, and most importantly because of the presence of drug in various vascular spaces, i.e., the residual blood of the brain. […] After 24 h, we assessed the invasive ability of the treated GBM6 cells compared to pretreated controls. […]

[2] = test system: cancer cells; experiment: toxicity to cultured cells; format: cell-based, human
[3] = pharmacokinetics after IV and IP administration; format: in vivo, Balb/c mice; settings: for concentration at 0.25 h: 0.250 h
[4] = migration (SAR, Table 4); format: cell-based
[5] = test system: U87 cells; experiment: clonogenic radiosurvival (colony formation); format: cell-based, human; settings: 50 μM PDZ1i 2 h prior to radiation, 14 d
Experimental: (§1) FIGS. 8A-8D. PDZ1i produces similar effects to mda-9/syntenin knockdown post-radiation. FIG. 8A. ImPHFA and U87 cells were treated with 50 μM PDZ1i 2 h prior to radiation and analyzed for colony formation after 14 d. FIG. 8B. U87 cells were treated with 50 μM PDZ1i 2 h prior to radiation and analyzed via MTT assay after 24 h. FIG. 8C. U87 cells were pretreated with 50 μM PDZ1i 2 h prior to radiation and subsequently seeded in a trans-well Matrigel invasion assay and stained after 24 h. Invasion was quantified from 5 random fields in FIG. 8D. Error bars=±s.d. *p<0.05, **p<0.01.
(§2) Clonogenic radiosurvival experiments were carried out as described previously (4,7). Briefly, cells were diluted, seeded on 6-cm dishes, and after the cells attached, treated with DMSO or PDZ1i (12.5, 25, or 50 μM) in the medium for 2 h before irradiation. Cells were incubated overnight, and the medium changed to nondrug containing medium 16 h postirradiation. Cells were incubated further for 14 days, stained with 2% Giemsa solution, and colonies consisting of 50 or more were counted. Cell viability was assessed through MTT analysis as described previously (8).

[6] = test system: ImPHFA cells; experiment: clonogenic radiosurvival (colony formation); format: cell-based, human; settings: 50 μM PDZ1i 2 h prior to radiation, 14 d
Experimental: as §1, §2

[7] = Balb/c, mouse, plasma, IP 30 mg/kg
[8] = Balb/c, mouse, plasma, IP 30 mg/kg, read-out: Plasma Concentration, Mean IP
[9] = Balb/c, mouse, plasma, IV 3 mg/kg, read-out: Plasma Concentration, Mean IV

SMILES: Cc1cc(NC(=O)c2nc3[nH]c4c(c(=O)n3n2)CCC4)c(C)cc1NC(=O)CCc1nnc(-c2ccccc2)o1 [113B7, N-(2,5-dimethyl-4-(3-(5-phenyl-1,3,4-oxadiazol-2-yl)propanamido)phenyl)-8-oxo-5,6,7,8-tetrahydro-4H-cyclopenta[d][1,2,4]triazolo[1,5-a]pyrimidine-2-carboxamide]
- crossing of the HBMEC barrier (blood brain barrier surrogate) [1]: effectively crossed the HBMEC barrier
- toxicity to primary normal cells and cancer cells [2]: non-toxic
- toxicity ([2]; tested at 50 μM): did not show any toxicity
- cytotoxicity ([2]; tested up to 20 μM): did not show any significant cytotoxicity
- signs of toxicity during the PK experiment ([3]; 3.0 mg/Kg IV and 30.0 mg/Kg IP, mice): lack of adverse signs of toxicity
- half-life ([3]; Balb/c, mouse, intravenous, intraperitoneal, in each route: 3.0 mg/Kg IV and 30.0 mg/Kg IP, mice, serum, read-out: T1/2 (very slow clearance)): > 9 h
- bioavailability ([3]; Balb/c, mouse, plasma, intraperitoneal, 30 mg/kg, IP 30 mg/kg versus IV 3 mg/kg, read-out: Bioavailability (IP/IV)): 81.2%
- AUC ([3]; Balb/c, mouse, plasma, ip, 30 mg/kg, IP 30 mg/kg, read-out: AUC0-int (first line)): 975 µg·h/mL
- AUC ([3]; Balb/c, mouse, plasma, ip, 30 mg/kg, IP 30 mg/kg, read-out: AUC0-int (second line)): 1180 µg·h/mL
- AUC ([3]; Balb/c, mouse, plasma, iv, 3 mg/kg, IV 3 mg/kg, read-out: AUC0-int (first line)): 120 µg·h/mL
- AUC ([3]; Balb/c, mouse, plasma, iv, 3 mg/kg, IV 3 mg/kg, read-out: AUC0-int (second line)): 124 µg·h/mL
- Cmax [3, 7]: 98200 ng/mL
- Tmax [3, 7]: 0.25 h
- concentration at 0.25 h [3, 8]: 98200 ng/mL
- concentration at 1 h [3, 8]: 69200 ng/mL
- concentration at 2 h [3, 8]: 59000 ng/mL
- concentration at 6 h [3, 8]: 54600 ng/mL
- concentration at 12 h [3, 8]: 42800 ng/mL
- concentration at 24 h [3, 8]: 15100 ng/mL
- half-life ([3]; Balb/c, mouse, plasma, IP 30 mg/kg, read-out: T1/2 (converted)): 9.42 h
- C0 ([3]; Balb/c, mouse, plasma, IV 3 mg/kg): 35000 ng/mL
- concentration at 0.25 h [3, 9]: 29500 ng/mL
- concentration at 1 h [3, 9]: 17700 ng/mL
- concentration at 2 h [3, 9]: 11600 ng/mL
- concentration at 6 h [3, 9]: 6110 ng/mL
- concentration at 12 h [3, 9]: 3360 ng/mL
- concentration at 24 h [3, 9]: 541 ng/mL
- half-life ([3]; Balb/c, mouse, plasma, IV 3 mg/kg, read-out: T1/2 (converted)): 5.06 h
- half-life ([3]; Balb/c, mouse, serum, intravenous and intraperitoneal, in vivo, read-out: half-life (t1/2) (converted)): 9 h
- bioavailability ([3]; Balb/c, mouse, serum, ip, 30 mg/kg, administered I.P. 30.0 mg/Kg, mice, read-out: bioavailability): 80%
- bioavailability ([3]; administered I.P. 30.0 mg/Kg, mice, 30 mg/kg): ~100%
- % migr. [4]: 62%
- radiosensitivity (colony formation) [5]: markedly more radiosensitivity
- radiosensitivity (colony formation) [6]: did not further radiosensitize
